Experimental data published in US9085463B2, “Water-soluble functionalized fullerenes” (Marelle, LLC, priority 2011, dated 2015).

What was measured:
[1] = DPPH radical-scavenging method (anti-oxidant potential); type: biochemical; settings: for RD(.05 mg): amount of compound needed to deplete .05 mg of DPPH: calculated from slope; for Slope (anti-oxidant potential): mg DPPH remaining vs mg compound, linear regression, absorbance at 517 nm
From the text: The ability of a component to serve as an anti-oxidant is readily tested by a variety of methods known in the art. These analytical methods measure the radical-scavenging activity of anti-oxidants against free radicals, such as the 1,1-diphenyl-2-picrylhydrazyl (DPPH) radical. […] This absorbance disappears as the DPPH is consumed upon reduction by an antiradical compound. The disappearance of this so-called absorbance band can be followed by spectroscopic methods allowing quantitative measurements of the compound's anti-oxidant ability.
Stock solutions of 100 micromolar DPPH were prepared using 3.9 milligrams (mg) of DPPH dissolved in 100 milliliters (ml) of solution using spectroscopic grade methanol (MeOH). 3.5 ml of the DPPH solution was combined with 0.5 ml of test solutions of various concentrations of the anti-oxidant compounds. The commercial anti-oxidants, which are not water soluble, were dissolved in MeOH while their functionalized fullerene derivatives were dissolved in distilled water. The test mixture was immediately placed in a spectrometer which measured the absorbance of the mixture at 517 nm at various intervals over periods of 6 to 8 hours. Typically 4 or more samples of the anti-oxidants at various concentrations were tested. The concentrations, expressed in milligrams per milliliter (mg/ml), were selected so that some of the samples would consume more than 50% of the DPPH and others would not.
The percent of DPPH remaining at a given time interval was calculated using the following equation:
[formula] ACt is the absorbance value to the compound/DPPH solution at time t, ADPPHi is the initial value of the DPPH control blank at time t=0, and ADPPHt′ is the absorbance value of the control blank DPPH at time t=t′. The term (ADPPHt−ADPPHt′) in the above equation is the absorbance correction factor for DPPH radical decay as measured in the control blank.
The % DPPHram was recorded for each of the four concentrations at two different reaction times (30 minutes and 300 minutes). The % DPPHram was converted to milligrams (mg) of DPPH remaining and plotted as a function of milligrams (mg) of compound for each of the two reaction times. Linear regressions were calculated for each of the data sets according to the following formula: CDPPH=mt·Cc+CDPPHo
CDPPH is the mass of DPPH remaining at time t=30 minutes and time t=300 minutes, Co is the mass of the compound in the cuvette, CDPPHo is the initial concentration of the DPPH in the cuvette, and mt is the slope determined by the linear regression. The slope was used as a parameter to estimate the anti-oxidant potential of the compound. […] FIGS. 30-34 illustrate the slope (anti-oxidant potential) of commercial anti-oxidants and their functionalized fullerenol derivatives (indicated with FF in the legends).
The slope for each compound was tabulated and the amount (mg) of compound needed to deplete 0.05 mg of DPPH was calculated (see Table 1).

[2] = UV absorbing ability (UV/Vis absorbance of solutions); type: physicochemical; settings: 0.5 mg/ml, avobenzone in acetone, functionalized fullerene in distilled water
Description: The ability of a component to absorb UV light is readily tested using spectroscopic instruments, such as a UV/Vis spectrophotometer.
5.0 milligrams (mg) of avobenzone, a UV light absorbing substance widely used in sunscreens, was dissolved in 10 milliliters (ml) of reagent grade acetone. […] UV absorbance (A) of the resulting solutions was measured at 290 nm, 320 nm, and 400 nm.

SMILES | RD(.05 mg): amount of compound needed to deplete .05 mg of DPPH ([1]; 30 minutes reaction time) | Slope (anti-oxidant potential) ([1]; 30 minutes reaction time) | RD(.05 mg): amount of compound needed to deplete .05 mg of DPPH ([1]; 300 minutes reaction time) | Slope (anti-oxidant potential) ([1]; 300 minutes reaction time) | Absorbance (A) 290 nm ([2]; 290 nm) | Absorbance (A) 320 nm ([2]; 320 nm) | Absorbance (A) 400 nm ([2]; 400 nm)
CCCCC/C=C\C/C=C\C/C=C\C/C=C\CCCC(=O)O [Arachidonic Acid, arachidonic acid, reference compound] | 250.00 mg | -0.0002 mg/mg | 45.45 mg | -0.0011 mg/mg |  |  | 
COc1ccc(C(=O)CC(=O)c2ccc(C(C)(C)C)cc2)cc1 [Avobenzone, avobenzone] |  |  |  |  | 0.297 | 0.521 | 0.376
COC1=C(OC)C(=O)C(C/C=C(\C)CC/C=C(\C)CC/C=C(\C)CC/C=C(\C)CC/C=C(\C)CC/C=C(\C)CC/C=C(\C)CC/C=C(\C)CC/C=C(\C)CCC=C(C)C)=C(C)C1=O [Coenzyme Q10, coenzyme Q10, reference compound] | 125.00 mg | -0.0004 mg/mg | 23.81 mg | -0.0021 mg/mg |  |  | 
CCCCC/C=C\C/C=C\CCCCCCCC(=O)O [Linoleic Acid, linoleic acid, reference compound] | 6250.00 mg | -0.000008 mg/mg | 100.00 mg | -0.0005 mg/mg |  |  | 
CC/C=C\C/C=C\C/C=C\CCCCCCCC(=O)O [Linolenic Acid, α-linolenic acid, reference compound] | 250.00 mg | -0.0002 mg/mg | 45.45 mg | -0.0011 mg/mg |  |  | 
